In ChEMBL document CHEMBL1777740, “Toward self-adjuvanting subunit vaccines: model peptide and protein antigens incorporating covalently bound toll-like receptor-7 agonistic imidazoquinolines” (Bioorg Med Chem Lett, 2011):
Calls of active or inactive are those of the source. No cut-off for these calls is given here.

What was measured:
Format in all cases: functional, cell-based
[1] = target: T1, Toll-like receptor 7 (Homo sapiens) (UniProt Q9NYK1); assay: Agonist activity at human TLR7 transfected in HEK reporter cells assessed as NF-kappaB induction by specific secreted alkaline phosphatase gene assay; details: HEK293
T1 sequence (whole entry): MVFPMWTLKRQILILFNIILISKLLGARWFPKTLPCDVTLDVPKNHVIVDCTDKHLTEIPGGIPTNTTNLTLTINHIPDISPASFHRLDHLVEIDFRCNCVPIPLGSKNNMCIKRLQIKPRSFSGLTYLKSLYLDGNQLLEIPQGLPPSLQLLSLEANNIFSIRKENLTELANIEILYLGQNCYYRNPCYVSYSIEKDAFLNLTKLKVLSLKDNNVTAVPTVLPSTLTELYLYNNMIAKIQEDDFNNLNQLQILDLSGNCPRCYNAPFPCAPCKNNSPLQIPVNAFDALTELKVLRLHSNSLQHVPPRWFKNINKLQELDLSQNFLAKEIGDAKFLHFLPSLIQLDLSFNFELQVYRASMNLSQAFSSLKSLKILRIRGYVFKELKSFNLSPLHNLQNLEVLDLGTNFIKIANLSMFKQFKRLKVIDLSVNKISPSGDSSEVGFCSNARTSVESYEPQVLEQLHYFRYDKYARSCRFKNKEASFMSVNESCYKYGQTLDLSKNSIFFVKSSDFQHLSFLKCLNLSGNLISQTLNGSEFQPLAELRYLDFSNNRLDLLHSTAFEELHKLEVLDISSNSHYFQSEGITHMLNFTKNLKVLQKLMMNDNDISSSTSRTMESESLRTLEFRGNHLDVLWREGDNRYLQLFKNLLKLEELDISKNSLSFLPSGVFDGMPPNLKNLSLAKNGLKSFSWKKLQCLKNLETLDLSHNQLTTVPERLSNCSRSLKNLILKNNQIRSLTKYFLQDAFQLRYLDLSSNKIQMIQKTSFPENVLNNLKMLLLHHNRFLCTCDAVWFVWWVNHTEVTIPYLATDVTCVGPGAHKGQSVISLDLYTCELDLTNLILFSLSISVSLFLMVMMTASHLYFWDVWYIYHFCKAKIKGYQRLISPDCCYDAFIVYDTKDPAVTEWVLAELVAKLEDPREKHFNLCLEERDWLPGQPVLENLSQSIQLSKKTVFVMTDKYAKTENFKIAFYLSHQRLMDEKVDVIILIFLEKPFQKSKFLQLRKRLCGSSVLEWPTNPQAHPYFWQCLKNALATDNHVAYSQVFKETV

PBMC [2] = assay: Immunostimulatory activity in human PBMC assessed as Th1-biased immunostimulatory activity measured as IL18 release by ELISA
PBMC [3] = assay: Immunostimulatory activity in human PBMC assessed as Th1-biased immunostimulatory activity measured as IL12 release by ELISA
PBMC [4] = assay: Immunostimulatory activity in human PBMC assessed as Th1-biased immunostimulatory activity measured as IFN-gamma release by ELISA
PBMC [5] = assay: Immunostimulatory activity in human PBMC assessed as Th1-biased immunostimulatory activity measured as IFNalpha release by ELISA

Question: Which Activity [1] does the source give for CCCCc1nc2c(N)nc3ccccc3c2n1Cc1ccc(CNC(=O)CCN2C(=O)CC(SC[C@@H](NC(=O)CC[C@@H](N)C(=O)O)C(=O)NCC(=O)O)C2=O)cc1 (stereo not given in full) here?
Answer: inactive

Question: With CCCCc1nc2c(N)nc3ccccc3c2n1Cc1ccc(CN)cc1 as the compound, how does the Activity (PBMC [2]) read?
Answer: Active

Question: What about the Activity (PBMC [3]) of the same compound?
Answer: Active

Question: And the Activity (PBMC [4])?
Answer: Active

Question: What about the Activity (PBMC [5]) of the same compound?
Answer: Active
